From ChEMBL document CHEMBL5046246, “Dimeric Tetracenomycin Derivatives from a Taklamakan Desert-Derived Streptomyces sp. HDN154193” (2022)
Converted amounts (≈) assume the structure as drawn.

Assays:
Type in all cases: functional
Staphylococcus = assay: Antibacterial activity against methicillin-resistant coagulase-negative Staphylococcus assessed as reduction in bacterial growth by double dilution method
Proteus sp. = assay: Antibacterial activity against Proteus species assessed as reduction in bacterial growth by double dilution method; conditions: Proteus sp. (in: enterobacteria)
Staphylococcus aureus = assay: Antibacterial activity against methicillin-resistant Staphylococcus aureus assessed as reduction in bacterial growth by double dilution method
Mycolicibacterium phlei = assay: Antibacterial activity against Mycobacterium phlei assessed as reduction in bacterial growth by double dilution method
Bacillus subtilis = assay: Antibacterial activity against Bacillus subtilis assessed as reduction in bacterial growth by double dilution method

Row | SMILES | MIC (Staphylococcus) | MIC (Proteus sp.) | MIC (Staphylococcus aureus) | MIC (Mycolicibacterium phlei) | MIC (Bacillus subtilis)
1 | Cc1cc(O)cc2cc3c(c(O)c12)C(=O)c1c(O)cc(O)cc1[C@H]3[C@@H]1c2cc(O)cc(O)c2C(=O)c2c1cc1cc(O)cc(C)c1c2O | 1.9 µg/mL (≈ 2.96 µM) | 1.9 µg/mL (≈ 2.96 µM) | 1.9 µg/mL (≈ 2.96 µM) | 1.9 µg/mL (≈ 2.96 µM) | 1.9 µg/mL (≈ 2.96 µM)
2 | Cc1cc(O)cc2cc3c(c(O)c12)C(=O)c1c(O)cc(O)cc1C3=O [TETRACENOMYCIN D] | 7.7 µg/mL (≈ 22.9 µM) | 16 µg/mL (≈ 47.6 µM) | 16 µg/mL (≈ 47.6 µM) | 7.7 µg/mL (≈ 22.9 µM) | 16 µg/mL (≈ 47.6 µM)
3 | Cc1cc(O)cc2cc3c(c(O)c12)C(=O)c1c(O)cc(O)cc1[C@@H]3[C@H]1c2cc(O)cc(O)c2C(=O)c2c1cc1cc(O)cc(C)c1c2O | 1.9 µg/mL (≈ 2.96 µM) | 3.9 µg/mL (≈ 6.07 µM) | 1.9 µg/mL (≈ 2.96 µM) | 1.9 µg/mL (≈ 2.96 µM) | 3.9 µg/mL (≈ 6.07 µM)
4 | Cc1cc(O)cc2cc3c(c(O)c12)C(=O)c1c(O)cc(O)cc1[C@H]3[C@H]1c2cc(O)cc(O)c2C(=O)c2c1cc1cc(O)cc(C)c1c2O | 1.9 µg/mL (≈ 2.96 µM) | 3.9 µg/mL (≈ 6.07 µM) | 1.9 µg/mL (≈ 2.96 µM) | 1.9 µg/mL (≈ 2.96 µM) | 3.9 µg/mL (≈ 6.07 µM)
5 | Cc1cc(O)cc2cc3c(c(O)c12)C(=O)c1c(O)cc(O)cc1C3C1c2cc(O)cc(O)c2C(=O)c2c1cc1cc(O)cc(C)c1c2O (racemic) | 1.9 µg/mL (≈ 2.96 µM) | 1.9 µg/mL (≈ 2.96 µM) | 1 µg/mL (≈ 1.56 µM) | 1 µg/mL (≈ 1.56 µM) | 3.9 µg/mL (≈ 6.07 µM)
6 | O=C(O)c1cn(C2CC2)c2cc(N3CCNCC3)c(F)cc2c1=O [CIPROFLOXACIN] | 32.1 µg/mL (≈ 96.9 µM) | < 0.1 µg/mL | 128 µg/mL (≈ 388 µM) | 0.1 µg/mL (≈ 0.302 µM) | < 0.1 µg/mL
